Experimental data from patent publication US5063222A, “Antiinflammatory dexamethasone 17α-cyclopropanecarboxylates with reduced systemic activity” (SS Pharmaceutical Co., Ltd., priority 1989, dated 1991).

Experiments:
[1] = tested on: human skin; assay: Skin vessel constriction activity (local anti-inflammatory effect on human skin); format: in vivo, human (healthy male subjects); details: probit method
Procedure: Skin vessel constriction effects on human skin of the present invention were investigated according to the following method. Dexamethasone 17,21-dipropionate which is known as a very strong anti-inflammatory agent for external application was used as a comparative compound.
Fifteen (15) healthy male subjects who were free from any skin disease anamnesis, such as eczema, dermatosis, or the like, received the test. Test compounds were diluted with 95% ethanol to make 6 sample solutions with different concentrations; highest concentration: 1×10^-2, lowest concentration: 1×10^-7. A strap to which acryl cells (diameter: 12 mm, thickness: 2 mm, height, 3 mm) were fixed was applied to the back of each subject. The test compound solution was then dropped with a pippet, 0.02 ml per drop, according to a key-code allocated at random. After drying by air, the strap was peeled off. The coated area was covered with a polyvinylidene chloride film, of which the periphery was fixed with a strap for the patch test. The period of time during which the covering was applied was 16 hours. The judgment was made according to the following standard four times at 1, 2, 5, and 8 hours after the removal of the film.
++: The coated skin was strongly pale.
+: The coated skin was distinctly pale.
±: The coated skin was slightly pale.
The results were analyzed by the probit method to obtain the ED50 value (≥+) at which the coated area was clearly pale. The results are shown in Table 2, in which the relative value for the compounds of the present invention determined by taking the ED50 value for dexamethasone 17,21-dipropionate as 100 are given in parentheses.

[2] = tested on: carrageenin edema of the paw of rats; assay: Carrageenin paw edema, local (into paw) administration, edema inhibition ED40; local selectivity (A)/(B); format: in vivo, Wister male rats; details: ratio of ED40 systemic to ED40 local
Procedure: (§1) Using Wister male rats weighting 130-150 g, each group consisting of 6 rats, the local selectivity of the anti-inflammatory action was investigated by the systemic and local administration of the compounds of the present invention and comparative compounds.
For the local administration test, the test compound suspended in 1% carrageenin was subcutaneously injected into a paw in the rats at doses of 0.01, 0.03, and 1.0 μg/paw (0.1 ml/paw). Three hours after the carrageenin injection, the volume of the edema was compared with the corresponding value of the control group, thus obtaining the edema inhibition rate, from which ED40 was determined.
The ratio of the ED40 values thus obtained was taken for the evaluation of the local selectivity. [formula]
The higher the value, the greater is the selectivity.

[3] = tested on: carrageenin edema of the right hind paw of rats; assay: Carrageenin paw edema, systemic (subcutaneous, back) administration, edema inhibition ED40; format: in vivo, Wister male rats; details: Rattus norvegicus, sc; s.c. into back, 60 min before 1% carrageenin; edema 3 hours after carrageenin
Procedure: as §1
In the evaluation of systemic administration, a test compound suspended into 1% gum arabic was subcutaneously injected into back of rats at doses of 0.01, 0.03, 0.1, and 0.3 mg/kg (5 ml/kg). After 60 minutes following the administration, 1% carrageenin (0.1 ml) was injecte into the plantar surface of the right hind paw. The paw volume was measured with a plethysmometer before and 3 hours after the carrageenin injection. The value was compared with the corresponding value of the control group, thus obtaining the edema inhibition rate, from which ED40 was determined.

[4] = 1 hour after removal of film (16 hours covering)
[5] = 2 hours after removal of film (16 hours covering)
[6] = 5 hours after removal of film (16 hours covering)
[7] = 8 hours after removal of film (16 hours covering)

## CCC(=O)OCC(=O)[C@@]1(OC(=O)CC)[C@H](C)C[C@H]2[C@@H]3CCC4=CC(=O)C=C[C@]4(C)[C@@]3(F)[C@@H](O)C[C@@]21C [dexamethasone-17,21-dipropionate, Dexamethasone 17,21-dipropionate, reference compound]
[1]; [4]
  ED50 value (≥ +) concentration: 5.48 × 10^-4%
[1]; [5]
  ED50 value (≥ +) concentration: 4.11 × 10^-4%
[1]; [6]
  ED50 value (≥ +) concentration: 8.62 × 10^-3%
[1]; [7]
  ED50 value (≥ +) concentration: 3.19 × 10^-2%

## CCCC(=O)O[C@]1(C(=O)CO)[C@H](C)C[C@H]2[C@@H]3CCC4=CC(=O)C=C[C@]4(C)[C@@]3(F)[C@@H](O)C[C@@]21C [dexamethasone-17-butylate, reference compound]
[2]
  Local Selectivity (A)/(B): 0.62
[3]
  ED40: 0.18 mg/kg

## C[C@@H]1C[C@H]2[C@@H]3CCC4=CC(=O)C=C[C@]4(C)[C@@]3(F)[C@@H](O)C[C@]2(C)[C@@]1(OC(=O)C1CC1)C(=O)CO [Compound No. 1, 9α-fluoro-11β,17,21-trihydroxy-16α-methylpregna-1,4-diene-3,20-dione 17-cyclopropanecarboxylate]
[2]
  Local Selectivity (A)/(B): 3.50
[1]; [4]
  ED50 value (≥ +) concentration: 1.45 × 10^-4%
[1]; [5]
  ED50 value (≥ +) concentration: 1.19 × 10^-4%
[1]; [6]
  ED50 value (≥ +) concentration: 7.29 × 10^-4%
[1]; [7]
  ED50 value (≥ +) concentration: 1.24 × 10^-2%
[3]
  ED40: 0.28 mg/kg

## C[C@@H]1C[C@H]2[C@@H]3CCC4=CC(=O)C=C[C@]4(C)[C@@]3(F)[C@@H](O)C[C@]2(C)[C@@]1(OC(=O)C1CC1)C(=O)COC(=O)C1CC1 [Compound No. 4, 9α-fluoro-11β,17,21-trihydroxy-16α-methylpregna-1,4-diene-3,20-dione 17,21-dicyclopropanecarboxylate]
[2]
  Local Selectivity (A)/(B): 3.95
[1]; [4]
  ED50 value (≥ +) concentration: 5.10 × 10^-4%
[1]; [5]
  ED50 value (≥ +) concentration: 3.17 × 10^-4%
[1]; [6]
  ED50 value (≥ +) concentration: 2.00 × 10^-3%
[1]; [7]
  ED50 value (≥ +) concentration: 1.36 × 10^-2%
[3]
  ED40: 0.83 mg/kg

## CCCC(=O)OCC(=O)[C@@]1(OC(=O)CCC)[C@H](C)C[C@H]2[C@@H]3CCC4=CC(=O)C=C[C@]4(C)[C@@]3(F)[C@@H](O)C[C@@]21C [dexamethasone-17,21-dibutylate, reference compound]
[2]
  Local Selectivity (A)/(B): 2.00
[3]
  ED40: 0.34 mg/kg
